Reference: ChEMBL document CHEMBL5329202, “New aryl-/heteroarylpiperazine derivatives of 1,7-dimethyl-8,9-diphenyl-4-azatricyclo[5.2.1.02,6]dec-8-ene-3,5,10-trione: Synthesis and preliminary studies of biological activities” (Bioorg Med Chem, 2023)

What was measured:
[1] = biological target: T1, 5-hydroxytryptamine receptor 1A (Rattus norvegicus) (UniProt P19327); test: Agonist activity at Sprague-Dawley rat hippocampal membrane 5-HT1A receptor assessed as stimulation of [35S]GTPgammaS binding by measuring maximal efficacy measured after 90 mins by scintillation counter analysis relative to control; assay type: functional, cell membranes; details: Hippocampus, filed as agonist
T1 sequence (whole entry): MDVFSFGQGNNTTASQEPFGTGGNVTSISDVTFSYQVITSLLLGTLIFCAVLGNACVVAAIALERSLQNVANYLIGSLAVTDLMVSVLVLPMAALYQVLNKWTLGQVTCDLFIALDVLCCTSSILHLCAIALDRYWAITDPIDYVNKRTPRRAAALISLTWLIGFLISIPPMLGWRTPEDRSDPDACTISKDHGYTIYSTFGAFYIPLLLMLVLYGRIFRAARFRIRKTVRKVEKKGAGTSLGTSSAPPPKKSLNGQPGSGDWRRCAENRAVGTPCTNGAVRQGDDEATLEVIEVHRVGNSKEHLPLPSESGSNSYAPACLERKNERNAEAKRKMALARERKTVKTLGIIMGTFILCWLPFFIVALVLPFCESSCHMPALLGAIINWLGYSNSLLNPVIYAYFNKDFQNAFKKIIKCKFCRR

[2] = Cytotoxicity against human HMEC-1 cells assessed as cell growth inhibition measured after 72 hrs by MTT assay; assay type: toxicity, cell-based
[3] = tested on: MDA-MB-231; test: Cytotoxicity against human MDA-MB-231 cells assessed as cell growth inhibition measured after 72 hrs by MTT assay; assay type: functional, cell-based; details: MDA-MB-231, 72 h
[4] = tested on: HepG2; test: Cytotoxicity against human HepG2 cells assessed as cell growth inhibition measured after 72 hrs by MTT assay; assay type: functional, cell-based; details: HepG2, 72 h
[5] = tested on: A549; test: Cytotoxicity against human A549 cells assessed as cell growth inhibition measured after 72 hrs by MTT assay; assay type: functional, cell-based; details: A549, 72 h
[6] = tested on: K562; test: Cytotoxicity against human K562 cells assessed as cell growth inhibition measured after 72 hrs by MTT assay; assay type: functional, cell-based; details: K562, 72 h
[7] = tested on: HCT-116; test: Cytotoxicity against human HCT-116 cells assessed as cell growth inhibition measured after 72 hrs by MTT assay; assay type: functional, cell-based; details: HCT-116, 72 h

Structure (SMILES) | Emax [1] | IC50 at 72 h [2] | IC50 [3] | IC50 [4] | IC50 [5] | IC50 [6] | IC50 [7]
CCCN(CCC)C1CCc2cccc(O)c2C1 (configuration not stated) | 148% | – | – | – | – | – | –
COc1cccc2c1C(=O)c1c(O)c3c(c(O)c1C2=O)C[C@@](O)(C(=O)CO)C[C@@H]3O[C@H]1C[C@H](N)[C@H](O)[C@H](C)O1 [DOXORUBICIN] | – | 500 nM | 120 nM | 290 nM | 240 nM | 210 nM | 960 nM
